Experimental data from a melting point compilation (Tetko et al.; mined from patent text by program, amines drawn as free bases though some values may be those of a salt).

SMILES	melting point
O=C1COC(C#CC2CC2)(C(F)(F)F)c2cc(Cl)ccc2N1 (stereo not drawn)	200 °C
CCOC(=O)C1=C(N)N=C(OCC)C(C(=O)OCC)C1c1ccc(C)cc1 (stereo not drawn)	119 °C
O=C(O)c1cscc1Br	157 to 158 °C
CNc1nc(Nc2ccc(Cl)c(Cl)c2)ncc1NC(=O)OC	303 to 305 °C
CSc1ccc2nc[nH]c(=O)c2c1	203 to 204 °C
COc1ccc(S(=O)(=O)c2cccs2)c(Cl)c1Cl	190 °C
COCCOCONC(=O)c1nc(-c2ccc(Cl)c(OC)c2F)cc(N)c1Cl	126 to 128 °C
CC(=O)c1ccc(OCCCCl)c(C)c1	41.5 to 42.5 °C
CCCCCCON=C(C(=O)OCC)c1csc(N)n1	77 to 78 °C
O=C(O)c1cccnc1N1CCN(CCOCCO)CC1	172 to 174 °C
Cc1nc(SC(=N)N)[nH]c1C	283 to 285 °C
COc1cc2c(c3c1OC(C)(C)C3)C(c1cccc(O)c1)=NC(C)(C)C2	208 to 209 °C
Cc1c(Cl)c([N+](=O)[O-])cc([N+](=O)[O-])c1Cl	131 to 132 °C
Cc1cc(Cl)c(-n2nc(C#N)c(-c3ccco3)c2N)c(Cl)c1	192 °C
COc1ccc(Br)c(CN(CC(F)(F)F)C(=O)OC(C)(C)C)c1	86 to 89 °C
O=CNC1=NN(c2ccccn2)CC1	182 to 183 °C
COC(=O)CCCCCS(=O)c1ccc(-c2ccc(Cl)cc2)cc1 (stereo not drawn)	64 to 65 °C
C=CCN(CC=C)c1nc(NC(=O)COC)n2oc(=O)nc2n1	135 to 136 °C
CC(=S)NC[C@H]1CN(c2ccc3c(c2)CCCc2cn[nH]c2-3)C(=O)O1	190 to 195 °C
Cc1cc(Cl)c2[nH]ncc2n1	218 °C
CC1C=CC(NC(=O)OC(C)(C)C)C([N+](=O)[O-])C1c1cc([N+](=O)[O-])ccc1Cl (stereo not drawn)	195 to 203 °C
COc1ccc(OC)c2c(O)c(C#N)cnc12	300 to 305 °C
CC(=O)c1cn(C)c2ccc(F)cc12	158 to 160 °C
CSc1c(C#N)nn(-c2c(Cl)cc(C(F)(F)F)cc2Br)c1N	178 to 180 °C
Oc1ccc2c(c1)CCCC(c1ccccc1)=C2c1ccc(OCCCCSCCCC(F)(F)C(F)(F)F)cc1	167 °C

SMILES	melting point
CCCN(CCC)Cc1cnc(-c2ncn3c2CN(C)C(=O)c2ccccc2-3)o1	133 to 135 °C
COC(=O)c1c(C)c(O)cc(OC)c1Br	105 to 110 °C
CC(=NO)C1=CCC2C3CCC4CC=CCC4(C)C3C(=O)CC12C (stereo not drawn)	168 to 182 °C
Cc1nc(N)sc1-c1ccnc(Nc2ccc(N3CCSCC3)cc2)n1	180 to 182 °C
CC(/C=C/c1sccc1-c1ccc2c(c1)C(C)(C)CCC2(C)C)=C\C(=O)O	188 to 189 °C
O=C1CCc2cc(Cl)cc(Cl)c2C1	90 to 92 °C
O=C(N1CCN(c2nc(N3CC=CC3)nc(N3CC=CC3)n2)CC1)n1ccnc1	160 to 162 °C
CC1CCc2c(F)c(F)cc3c(=O)[nH]c(=O)n1c23 (stereo not drawn)	212 to 214 °C
C1=Cc2ccccc2NC1	89 to 90 °C
O=C(NCCO)c1cc(Cl)c(O)c(Cl)c1	174 to 178 °C
Cc1cc(C2=NOC(c3cc(Cl)cc(Cl)c3)(C(F)(F)F)C2)ccc1F (stereo not drawn)	72 to 74 °C
Cc1c(NC(=O)c2ccc(-c3ccc4c(c3)OCO4)cc2F)ccc2cc(CN3CCCC3)cnc12	181 to 182 °C
CCOC(=O)C(=NOCC(C)C)c1csc(N)n1	122 to 124 °C
O=S1CCON=C1c1nc2ccccc2s1 (stereo not drawn)	192 to 195 °C
CC(C)(C)OC(=O)CNC(=O)C(=O)c1cn(Cc2ccccc2)c2ccc(-c3ccc(OC(F)(F)F)cc3)cc12	167 to 168 °C
c1cncc(-c2cncnc2)c1	101 to 103 °C
CCCc1nc2c(N)nc(C)c(C)c2n1CCCCCS(=O)(=O)c1ccc(Cl)cc1	147 to 149 °C
NC(Cn1cncn1)(Cn1cncn1)c1ccc(Cl)cc1Cl	135 to 136 °C
Cc1c(SCCN2CCc3ccccc3C2)ccnc1CSc1nc2ncccc2[nH]1	180 °C
CCC1(CC)C(=O)N(CCO)CC(C)(C)N1OC(C)(C)C#N	80 to 82 °C
COc1nc2cc(C)c(C)c(N)c2nc1OC	166 to 167 °C
CC(=O)OC1CSC(Oc2ccc(-c3ccsc3)nc2)C(OC(C)=O)C1OC(C)=O (stereo not drawn)	158 °C
CCOC(=O)c1c(CCCn2ccnc2)nc2cc(OC)c(OC)cc2c1-c1ccc(OC)c(OC)c1	164 to 165 °C
CCC(C#N)CCn1nc(C(N)=O)c2ccccc21 (stereo not drawn)	178 to 180 °C
Nc1ccc(S(=O)(=O)C(F)(F)C(F)Cl)cc1Cl (stereo not drawn)	98 to 99 °C

Now from value to compound:

melting point	SMILES
198 to 202 °C	COc1ccccc1N1CCN(CC(O)COc2ccccc2C(=O)O)CC1 (stereo not drawn)
140 to 142 °C	CCN1C(=O)C(C)(C)C(=O)N(C)c2cc(OCCCn3c(-c4ccccc4)cc4ccccc43)ccc21
136 to 137 °C	CCC(Cc1ccc(OC)c(CC(=O)Nc2ccc(C(F)(F)F)cc2)c1)C(=O)O (stereo not drawn)
228 to 230 °C	Cc1csc(NC(=O)C2=C(O)c3ccccc3N(c3ccccc3)C2)n1
> 310 °C	Cn1c2ccccc2c2c3ccc(Cl)cc3c(=O)[nH]c21
223 °C	O=C1Cn2ncnc2-c2ccccc2N1
262 to 263 °C	CC(C)(O)C#Cc1cccc(Nc2nccc(-c3sc(N)nc3-c3ccccc3)n2)c1
167 to 169 °C	O=C1Nc2ccccc2N(C(=O)CCN2CCCC2)c2ccc(Cl)cc21
118 to 120 °C	O=C(NCCC12CCC(=O)N1C(=O)CC2)OCc1ccccc1
110 to 112 °C	NCC1(C(=O)O)CC(c2ccccc2)Cc2c(O)cccc21 (stereo not drawn)
125 to 135 °C	COc1cc(C(=O)NS(=O)(=O)c2ccccc2C)ccc1Cc1cn(C)c2ccc(CC(C)NC(=O)N(C)C)cc12 (stereo not drawn)
168 to 169 °C	CC[C@H](C)[C@H](NC(=O)OC(C)(C)C)C(=O)N[C@H](C(=O)N[C@@H](Cc1ccc2ccccc2c1)[C@@H](O)[C@@H](O)CC(C)C)[C@@H](C)CC
141 to 144 °C	CC(C)n1nc(-c2sc(C(=O)N(C)C)nc2-c2ccccc2)ccc1=O
276 to 278 °C	Cc1c(O)cc(OC(=O)Cc2ccc(CC(=O)Oc3cc(O)c(C)c(O)c3)cc2)cc1O
244 °C	Cc1cc(NC(=O)C=Cc2ccccc2)c(NC(=O)C=Cc2ccccc2)cc1C
175 °C	Cc1ccc(S(=O)(=O)NC[C@@H]2C[C@@H](S)CN2S(=O)(=O)c2ccc3ccccc3c2)cc1
257 to 264 °C	O=C(O)CN1C(=O)C(=Cc2ccc3ccccc3c2)SC1=S
91 to 93 °C	COC(=O)c1c(C=O)cccc1Oc1nc(OC)cc(OC)n1
178 to 191 °C	O=C(Nc1cccc2c(N3CCN(Cc4ccccc4)C3=O)ccnc12)c1c(Cl)cccc1Cl
103 to 104 °C	CC(=NOCC(N)=O)c1ccc(Cl)cc1
245 to 247 °C	O=c1c2c(CCc3cccc([N+](=O)[O-])c3)n[nH]c2c2cccnc2n1-c1ccccc1
> 260 °C	O=C1CCC(N2Cc3c(CNC(=O)c4ccc(Cl)c(Cl)c4)cccc3C2=O)C(=O)N1 (stereo not drawn)
136 to 145 °C	O=C(Nc1ccc(C(=O)N2C[C@H]3C[C@H](F)CN3c3ccccc32)cc1)c1ccccc1-c1ccccc1
175 to 177 °C	O=C1NCc2cccnc2N1c1cccc(I)c1
157 °C	CC(C)(C)c1cc(CCc2ccccc2NC(=O)NCCCCc2ccccc2)cc(C(C)(C)C)c1O
100 to 102 °C	COc1cccc(C=C2N=C(c3ccccc3)OC2=O)c1
88 to 89 °C	CCOC(=O)CC(=O)COCC1=C(C(=O)OCC)C(c2ccccc2Cl)C(C(=O)OC)=C(C)N1 (stereo not drawn)

melting point	SMILES
236 to 237 °C	CCC1NC(C(=O)O)Cc2c1[nH]c1ccccc21 (stereo not drawn)
101 to 105 °C	CS(=O)(=O)N(Cc1ccncc1)c1ccc(F)cc1F
153 to 155 °C	c1ccc(CCC2CCN(Cc3n[nH]c4ccccc34)CC2)cc1
127 to 129 °C	O=C(O)C(O)N1C(=O)CCN1c1ccccc1 (stereo not drawn)
104 to 106 °C	CC(C)(C)OC(=O)N1CCC2(Cc3cc4ccccc4n3C2)C1 (stereo not drawn)
100 °C	O=[N+]([O-])c1cccc2ccc3c(c12)C(CCl)CN3 (stereo not drawn)
239 to 240 °C	Cn1ncc(/C=C/C(=O)Nc2ccc(CN3C(=O)COC3=O)cc2)c1-c1ccc(F)cc1
106 to 107 °C	CC(N)C(N)CC(=O)c1ccccc1 (stereo not drawn)
70 to 71 °C	Cc1cc2ccccc2n1-c1ccc(OCc2ccccc2)c(F)c1
130 to 132 °C	O=C(CCCCCN1C(=O)c2ccc([N+](=O)[O-])cc2C1=O)NO
85 to 87 °C	COC(=O)c1ccc(Cl)cc1NC(=O)Cc1cccnc1
92 to 94 °C	CCN1CCc2c([nH]c3ccccc23)C1CNC(=O)OCc1ccccc1 (stereo not drawn)
142 to 144 °C	N#CC(C(=O)c1ccc(Cl)cc1)=C1CCCN1Cc1ccc(Cl)nc1
122 to 124 °C	O=C(O)C1C=C(c2ccccc2)CC1 (stereo not drawn)
339 °C	O=C(Nc1ccc([N+](=O)[O-])cc1Cl)c1ccc(C(=O)Nc2ccc([N+](=O)[O-])cc2Cl)cc1
148 to 152 °C	Cc1cccc(C)c1N(CCC(C)N1C(=O)c2ccccc2C1=O)S(C)(=O)=O (stereo not drawn)
208 to 209 °C	CCCCOc1nc(N)c2[nH]c(=O)n(CCCNc3cccc(CC(=O)OC)c3)c2n1
186 to 187 °C	O=C1Nc2cccc(I)c2C(=O)N2CC[C@@H]12
244 to 246 °C	CCCCc1nc2cc(Cl)c(Cl)cc2n1Cc1ccc(C(=O)O)cc1
210 to 212 °C	CN(C)c1ccc2cc(-c3ccnc(SCCO)c3C#N)ccc2c1
35 to 39 °C	C=CCC(O)c1ccc2ccccc2c1 (stereo not drawn)
65 to 67 °C	CCOC(=O)CCCN(C(=O)c1cccc(C(F)(F)F)c1)c1ccccc1-c1ccccc1
211 to 213 °C	O=c1[nH]c2ccccc2c(=O)n1S(=O)(=O)c1ccccc1
140 to 141 °C	Cn1c(CC(=O)O)ccc1C(=O)c1ccccc1Cl
173 to 175 °C	CCOC(=O)C(=O)CC(=O)c1cn(Cc2ccccc2F)c2cc(Cl)ccc2c1=O
247 °C	Cn1nnc(NC(=O)C2c3ccccc3Oc3ccccc32)n1
